According to patent US10308881B2, “Process to produce oil with low polyaromatic hydrocarbon content” (PT PERTAMINA (PERSERO), priority 2010, dated 2019):

System: Salmonella typhimurium TA 1535
Experiment: Mutagenicity test (AMES Test, OECD Guidelines for Testing of Chemicals No. 471)
Type: cell-based
Conditions: without dilution
Description: One of the important consideration published in the European Commission 2005/69/EC (European legislation) confirmed the restriction that the level of 8 Grimmers PAHs especially Benzo(a)pyrene (BaP) with amount exceeding the allowed limit will be considered as carcinogenic, mutagenic and toxic, and thereby will be prohibited to produce and distribute within the European legislation area. The presence of PAHs can be detected qualitatively and quantitatively using Benzo(a)Pyrene (BaP) as marker. Commonly known method to measure carcinogenic and mutagenic compound is ASTM E 1687-98 method (Ames test method for determining carcinogenic potential of Virgin Base Oils in Metalworking Fluids) and also Ames test based on OECD Guidelines for Testing of Chemicals No 471(1997). In the present invention method of AMES test using Salmonella typhimurium TA 1535 as microbes that is very sensitive to mutagenic compounds.
The mutagenity test was conducted using AMES Test based on OECD Guidelines for Testing of Chemicals No. 471 (1997). In this test Salmonella typhimurium TA 1535 was used as microbe material which was very sensitive to mutagenic compound. The number of colony which grew was an indicator of mutagenic activity of the PAH compound in the DAE Feed, TDAE-1 and TDAE-2, respectively. […]

C[S+](C)[O-] [DMSO, dimethylsulfoxide]
Average Number of Colony Koloni (With S-9 Mix): 377 | Average Number of Colony Koloni (Without S-9 Mix): 314
